In US20240368163A1, “COMPOUNDS AND METHODS FOR MODULATING SPLICING” (REMIX THERAPEUTICS INC., priority 2021, published 2024):
Where two headings read alike, the source gives them in different places.

Assays:
Format in all cases: cell-based, human
SMN2 = assay: Splicing RT-qPCR panel, SMN2 canonical junction (CJ) mRNA; conditions: RT-qPCR panel, canonical junction mRNA, compound concentration having 50% response in CJ decrease, read-out: SMN2 IC50 (decrease in CJ mRNA levels)
Summary of the method: (§1)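 Splice switching is measured in A673 or K562 cells after 24 h compound exposure (maximum 10 uM, 3-fold steps). Canonical and alternative junction mRNA levels are quantified by RT-qPCR relative to housekeeper and DMSO.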

HTT [1] = assay: Splicing RT-qPCR assay, HTT mRNA canonical junction (CJ) and alternative junction (AJ); conditions: for AC50: increase in AJ mRNA
Summary of the method: as §1

MYB [2] = assay: HiBiT protein abundance assay, MYB; conditions: Table 13A, modified K562 cells
Summary of the method: (§2)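 Tagged-target degradation assay: HiBiT-modified K562 cells treated 24 h with compound, 10 concentrations up to 10 μM final. Following lysis with LgBiT and substrate, luminescence gave normalized abundance; IC50 derived by logistic interpolation at 50%.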

MYB [3] = assay: Splicing RT-qPCR assay, MYB mRNA canonical junction (CJ) and alternative junction (AJ); conditions: for AC50: increase in AJ mRNA
Summary of the method: as §1

Target C [4] = assay: Splicing RT-qPCR panel, Target C canonical junction (CJ) mRNA; conditions: RT-qPCR panel, canonical junction mRNA, compound concentration having 50% response in CJ decrease, read-out: Target C IC50 (decrease in CJ mRNA levels)
Summary of the method: as §1

HTT [5] = assay: HiBiT protein abundance assay, HTT; conditions: Table 13A, modified K562 cells
Summary of the method: as §2

Target C [6] = assay: HiBiT protein abundance assay, Target C; conditions: Table 13A, modified K562 cells
Summary of the method: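 Target tagged with HiBiT by knock-in; 24 h dosing, 10 μM top final in 3-fold steps. IC50 from 4PL fit of normalized luminescence.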

[7] = Homo sapiens, 24 h, decrease in CJ mRNA, A673 or K562 cells, 24 hours treatment, RT-qPCR, read-out: HTT CJ IC50
[8] = Homo sapiens, 24 h, A673 or K562 cells, 24 hours treatment, RT-qPCR
[9] = Homo sapiens, RT-qPCR panel, canonical junction mRNA, compound concentration having 50% response in CJ decrease, read-out: HTT IC50 (decrease in CJ mRNA levels)
[10] = Homo sapiens, 24 h, decrease in CJ mRNA, A673 or K562 cells, 24 hours treatment, RT-qPCR, read-out: MYB CJ IC50
[11] = Homo sapiens, RT-qPCR panel, canonical junction mRNA, compound concentration having 50% response in CJ decrease, read-out: MYB IC50 (decrease in CJ mRNA levels)

CC1(C)CC(Oc2ccc(-c3ccc(-n4cccn4)c4ncsc34)nn2)CC(C)(C)N1 [Compound 335, 4-(pyrazol-1-yl)-7-{6-[(2,2,6,6-tetramethylpiperidin-4-yl)oxy]pyridazin-3-yl}-1,3-benzothiazole]
1000 to 10000 nM: IC50 (HTT [1]; [7]) | AC50 (HTT [1]; [8]) | IC50 (HTT [1]; [9]) | IC50 (MYB [2]; Homo sapiens, K562, 24 h) | IC50 (MYB [3]; [10]) | AC50 (MYB [3]; [8]) | IC50 (MYB [3]; [11]) | IC50 (Target C [4]; Homo sapiens) | IC50 (Target C [6]; Homo sapiens, K562, 24 h)
100 to 1000 nM: IC50 (SMN2; Homo sapiens) | IC50 (HTT [5]; Homo sapiens, K562, 24 h)

Cn1cc(-c2c(F)cc(-c3ccc(NC4CCNCC4)nn3)c3[nH]ncc23)cn1 [Compound 338]
> 10000 nM: IC50 (Target C [4]; Homo sapiens)
100 to 1000 nM: IC50 (SMN2; Homo sapiens)
1000 to 10000 nM: IC50 (HTT [1]; [7]) | AC50 (HTT [1]; [8]) | IC50 (HTT [1]; [9]) | IC50 (MYB [2]; Homo sapiens, K562, 24 h) | IC50 (MYB [3]; [10]) | AC50 (MYB [3]; [8]) | IC50 (MYB [3]; [11]) | IC50 (HTT [5]; Homo sapiens, K562, 24 h) | IC50 (Target C [6]; Homo sapiens, K562, 24 h)

Cc1ncc(-c2ccc(-c3ccc(N(C)C4CC(C)(C)NC(C)(C)C4)nn3)c3scnc23)o1 [Compound 342]
100 to 1000 nM: IC50 (HTT [1]; [7]) | AC50 (HTT [1]; [8]) | IC50 (HTT [1]; [9]) | IC50 (MYB [2]; Homo sapiens, K562, 24 h) | IC50 (HTT [5]; Homo sapiens, K562, 24 h) | IC50 (Target C [6]; Homo sapiens, K562, 24 h)
< 100 nM: IC50 (SMN2; Homo sapiens)
1000 to 10000 nM: IC50 (MYB [3]; [10]) | AC50 (MYB [3]; [8]) | IC50 (MYB [3]; [11]) | IC50 (Target C [4]; Homo sapiens)

c1cnn(-c2ccc(-c3ccc(N[C@@H]4C[C@H]5CC[C@@H](C4)N5)nn3)c3scnc23)c1 [Compound 343]
< 100 nM: IC50 (SMN2; Homo sapiens) | IC50 (HTT [1]; [9]) | IC50 (HTT [5]; Homo sapiens, K562, 24 h)
100 to 1000 nM: AC50 (HTT [1]; [8]) | IC50 (MYB [2]; Homo sapiens, K562, 24 h) | IC50 (MYB [3]; [10]) | AC50 (MYB [3]; [8]) | IC50 (MYB [3]; [11]) | IC50 (Target C [4]; Homo sapiens) | IC50 (Target C [6]; Homo sapiens, K562, 24 h)

CN(c1ccc(-c2ccc(-n3cccn3)c3ncsc23)nn1)[C@@H]1C[C@H]2CC[C@@H](C1)N2 [Compound 344]
< 100 nM: IC50 (SMN2; Homo sapiens) | IC50 (HTT [1]; [9]) | IC50 (HTT [5]; Homo sapiens, K562, 24 h)
100 to 1000 nM: AC50 (HTT [1]; [8]) | IC50 (MYB [2]; Homo sapiens, K562, 24 h) | IC50 (MYB [3]; [10]) | AC50 (MYB [3]; [8]) | IC50 (MYB [3]; [11]) | IC50 (Target C [4]; Homo sapiens) | IC50 (Target C [6]; Homo sapiens, K562, 24 h)

CC(C)(C)NC1CCN(c2ccc(-c3ccc(-c4cn[nH]c4)c4ncsc34)nn2)C1 (centres unmarked) [Compound 345, N-tert-butyl-1-{6-[4-(1H-pyrazol-4-yl)-1,3-benzothiazol-7-yl]pyridazin-3-yl} pyrrolidin-3-amine]
100 to 1000 nM: IC50 (SMN2) | IC50 (HTT [5]; 24 hours)
1000 to 10000 nM: IC50 (HTT [1]; RT-qPCR panel, canonical junction mRNA, compound concentration having 50% response in CJ decrease, read-out: HTT IC50 (decrease in CJ mRNA levels)) | IC50 (HTT [1]; decrease in CJ mRNA, A673 or K562 cells, 24 hours treatment, RT-qPCR, read-out: HTT CJ IC50) | IC50 (MYB [2]; 24 hours) | IC50 (MYB [3]; RT-qPCR panel, canonical junction mRNA, compound concentration having 50% response in CJ decrease, read-out: MYB IC50 (decrease in CJ mRNA levels)) | IC50 (MYB [3]; decrease in CJ mRNA, A673 or K562 cells, 24 hours treatment, RT-qPCR, read-out: MYB CJ IC50) | IC50 (Target C [4]) | IC50 (Target C [6]; 24 hours)

c1cnn(-c2ccc(-c3ccc(N4CCC(NC5CC5)C4)nn3)c3scnc23)c1 (centres unmarked) [Compound 346, N-cyclopropyl-1-{6-[4-(pyrazol-1-yl)-1,3-benzothiazol-7-yl]pyridazin-3-yl}pyrrolidin-3-amine]
> 10000 nM: IC50 (SMN2; Homo sapiens) | IC50 (HTT [1]; [7]) | AC50 (HTT [1]; [8]) | IC50 (HTT [1]; [9]) | IC50 (MYB [3]; [10]) | AC50 (MYB [3]; [8]) | IC50 (MYB [3]; [11]) | IC50 (Target C [4]; Homo sapiens) | IC50 (Target C [6]; Homo sapiens, K562, 24 h)
1000 to 10000 nM: IC50 (MYB [2]; Homo sapiens, K562, 24 h) | IC50 (HTT [5]; Homo sapiens, K562, 24 h)

c1cnn(-c2ccc(-c3ccc(N4CCC(NC5CC5)C4)nn3)c3[nH]ncc23)c1 (centres unmarked) [Compound 347, N-cyclopropyl-1-{6-[4-(pyrazol-1-yl)-1H-indazol-7-yl]pyridazin-3-yl}pyrrolidin-3-amine]
> 10000 nM: IC50 (HTT [1]; [7]) | AC50 (HTT [1]; [8]) | IC50 (HTT [1]; [9]) | IC50 (MYB [3]; [10]) | AC50 (MYB [3]; [8]) | IC50 (MYB [3]; [11]) | IC50 (Target C [4]; Homo sapiens) | IC50 (Target C [6]; Homo sapiens, K562, 24 h)
1000 to 10000 nM: IC50 (SMN2; Homo sapiens) | IC50 (MYB [2]; Homo sapiens, K562, 24 h) | IC50 (HTT [5]; Homo sapiens, K562, 24 h)

Cc1cc(-c2ccc(-c3ccc(O[C@@H]4C[C@H]5CC[C@@H](C4)N5)nn3)c3scnc23)ccn1 [Compound 349]
1000 to 10000 nM: IC50 (HTT [1]; [7]) | AC50 (HTT [1]; [8]) | IC50 (HTT [1]; [9]) | IC50 (MYB [3]; [10]) | IC50 (MYB [3]; [11]) | IC50 (Target C [4]; Homo sapiens) | IC50 (Target C [6]; Homo sapiens, K562, 24 h)
100 to 1000 nM: IC50 (MYB [2]; Homo sapiens, K562, 24 h) | IC50 (HTT [5]; Homo sapiens, K562, 24 h)
> 10000 nM: AC50 (MYB [3]; [8])
< 100 nM: IC50 (SMN2; Homo sapiens)

Cl.Fc1cc(-c2ccc(NC3CCNCC3)nn2)c2[nH]ncc2c1-c1cn[nH]c1 [Compound 350, 6-[5-fluoro-4-(1H-pyrazol-4-yl)-1H-indazol-7-yl]-N-(piperidin-4-yl)pyridazin-3-amine hydrochloride]
1000 to 10000 nM: IC50 (MYB [2]; Homo sapiens, K562, 24 h)
> 10000 nM: IC50 (SMN2; Homo sapiens) | IC50 (HTT [1]; [7]) | AC50 (HTT [1]; [8]) | IC50 (HTT [1]; [9]) | IC50 (MYB [3]; [10]) | AC50 (MYB [3]; [8]) | IC50 (MYB [3]; [11]) | IC50 (Target C [4]; Homo sapiens) | IC50 (HTT [5]; Homo sapiens, K562, 24 h) | IC50 (Target C [6]; Homo sapiens, K562, 24 h)

CN(c1ccc(-c2cc(F)c(-c3cn[nH]c3)c3cn[nH]c23)nn1)[C@@H]1C[C@H]2CC[C@@H](C1)N2 [Compound 351]
100 to 1000 nM: IC50 (MYB [2]; Homo sapiens, K562, 24 h) | IC50 (MYB [3]; [10]) | AC50 (MYB [3]; [8]) | IC50 (MYB [3]; [11]) | IC50 (Target C [4]; Homo sapiens) | IC50 (Target C [6]; Homo sapiens, K562, 24 h)
< 100 nM: IC50 (SMN2; Homo sapiens) | AC50 (HTT [1]; [8]) | IC50 (HTT [1]; [9]) | IC50 (HTT [5]; Homo sapiens, K562, 24 h)

c1nc2c(-c3cn[nH]c3)ccc(-c3ccc(N[C@H]4C[C@H]5COC[C@@H](C4)N5)nn3)c2s1 [Compound 353]
> 10000 nM: IC50 (HTT [1]; [7]) | IC50 (HTT [1]; [9]) | AC50 (MYB [3]; [8]) | IC50 (Target C [6]; Homo sapiens, K562, 24 h)
1000 to 10000 nM: IC50 (SMN2; Homo sapiens) | AC50 (HTT [1]; [8]) | IC50 (MYB [2]; Homo sapiens, K562, 24 h) | IC50 (MYB [3]; [10]) | IC50 (MYB [3]; [11]) | IC50 (Target C [4]; Homo sapiens) | IC50 (HTT [5]; Homo sapiens, K562, 24 h)

c1nc2c(-c3cn[nH]c3)ccc(-c3ccc(N[C@@H]4C[C@H]5COC[C@@H](C4)N5)nn3)c2s1 [Compound 354, (endo)-N-{6-[4-(1H-pyrazol-4-yl)-1,3-benzothiazol-7-yl]pyridazin-3-yl}-3-oxa-9-azabicyclo[3.3.1]nonan-7-amine]
100 to 1000 nM: AC50 (HTT [1]; [8]) | IC50 (MYB [2]; Homo sapiens, K562, 24 h) | IC50 (MYB [3]; [10]) | IC50 (MYB [3]; [11]) | IC50 (Target C [4]; Homo sapiens) | IC50 (HTT [5]; Homo sapiens, K562, 24 h) | IC50 (Target C [6]; Homo sapiens, K562, 24 h)
1000 to 10000 nM: AC50 (MYB [3]; [8])
< 100 nM: IC50 (SMN2; Homo sapiens) | IC50 (HTT [1]; [9])
